One assay concerns the target T1, Cytochrome P450 1A1 (Homo sapiens, UniProt P04798).
T1 sequence (P04798 whole entry): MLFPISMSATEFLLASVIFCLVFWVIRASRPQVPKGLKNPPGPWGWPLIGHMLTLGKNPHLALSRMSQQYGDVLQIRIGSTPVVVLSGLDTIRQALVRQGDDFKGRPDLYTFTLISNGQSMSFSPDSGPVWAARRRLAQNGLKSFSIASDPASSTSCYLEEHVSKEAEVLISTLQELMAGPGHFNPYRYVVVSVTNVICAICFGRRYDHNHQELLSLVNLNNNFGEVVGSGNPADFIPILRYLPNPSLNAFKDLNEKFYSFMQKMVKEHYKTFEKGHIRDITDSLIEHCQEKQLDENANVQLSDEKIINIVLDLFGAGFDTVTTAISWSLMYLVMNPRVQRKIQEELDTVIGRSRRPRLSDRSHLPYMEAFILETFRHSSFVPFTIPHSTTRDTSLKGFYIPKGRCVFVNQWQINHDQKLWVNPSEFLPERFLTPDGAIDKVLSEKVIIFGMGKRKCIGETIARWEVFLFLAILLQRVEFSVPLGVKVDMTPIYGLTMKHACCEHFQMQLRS
As to the kind of experiment: CYP Inhibition Assay. As to the method: (§1) The test compounds were evaluated for their ability to inhibit the catlytic activity of human CYP1 enzymes by means of high throughput fluorometric detection assay conducted in 96-well microtitre plates.

For a further assay, the target named is Cytochrome P450 2C19 (Homo sapiens, UniProt P33261). Description: CYP Inhibition Assay. The protocol:
as §1

Results on 1 compound are retold here after BindingDB's records for doi:10.1186/2191-2858-2-21 (University of The West Indies, 2012).

Sequence of Cytochrome P450 2C19 (P33261 whole entry): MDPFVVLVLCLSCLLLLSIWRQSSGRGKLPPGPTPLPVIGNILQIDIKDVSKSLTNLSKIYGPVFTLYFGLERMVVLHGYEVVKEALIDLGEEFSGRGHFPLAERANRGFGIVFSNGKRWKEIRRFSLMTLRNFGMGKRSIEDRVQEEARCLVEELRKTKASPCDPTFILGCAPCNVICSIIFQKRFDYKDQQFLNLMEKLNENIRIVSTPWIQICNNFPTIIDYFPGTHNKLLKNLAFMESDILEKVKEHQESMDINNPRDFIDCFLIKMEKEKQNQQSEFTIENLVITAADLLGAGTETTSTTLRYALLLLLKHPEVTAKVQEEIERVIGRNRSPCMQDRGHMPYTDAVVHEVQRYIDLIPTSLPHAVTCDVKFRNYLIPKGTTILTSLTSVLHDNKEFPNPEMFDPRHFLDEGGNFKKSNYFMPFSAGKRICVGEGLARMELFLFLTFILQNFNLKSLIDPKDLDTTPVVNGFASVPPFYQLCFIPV

As a reminder, the IC50 is the point on the concentration scale where inhibition reaches its midpoint. Lower therefore signals inhibition by little substance. With `CC(C)(O)CCCC1(C)CC(=O)c2cc(O)c(Br)cc2O1` (configuration not stated) [PBQ1], the IC50 was found to be 390 nM against Cytochrome P450 1A1 and 80 nM against Cytochrome P450 2C19.
